Test results: US20130072430A1, “METHODS FOR TREATMENT OR PROPHYLAXIS OF KIDNEY OR LIVER DYSFUNCTION” (NPS PHARMACEUTICALS, INC., priority 2010, published 2013)

Test system: Human patients with short bowel syndrome
Assay: Example 3: change from baseline to week 24 in liver enzyme levels (ALP, ALT, AST, total bilirubin, GGTP) by responder status (reduced parenteral nutrition)
Format: in vivo
Settings: 0.05 mg/kg/day
Experimental: In this example the data presented in Example 2 are analyzed to evaluate whether the beneficial effects of teduglutide on liver function tests are related to the reduction of parenteral nutrition volume.
Table 5 depicts the change in liver enzyme levels from baseline to week 24 in responders and non-responders. Responders are human patients with reduced parenteral nutrition, while non-responders are human patients without reduced parenteral nutrition. Human patients either received placebo or teduglutide at 0.05 mg/kg/day. Known biomarkers of liver function were monitored for 24 weeks. The liver biomarkers tested included ALP, ALT, AST, total bilirubin and GGTP.
Table 6 depicts the change in liver enzyme levels (ALP, ALT, AST, total bilirubin and GGTP), as presented in Table 5, and stratifies them by treatment group (placebo versus teduglutide at 0.05 mg/kg/day) and responder status (responder versus non-responder).

Q: What does the source list for CC[C@H](C)[C@H](NC(=O)[C@H](Cc1ccccc1)NC(=O)[C@H](CC(=O)O)NC(=O)[C@H](CCCNC(=N)N)NC(=O)[C@H](C)NC(=O)[C@H](C)NC(=O)[C@H](CC(C)C)NC(=O)[C@H](CC(N)=O)NC(=O)[C@H](CC(=O)O)NC(=O)[C@H](CC(C)C)NC(=O)[C@@H](NC(=O)[C@@H](NC(=O)[C@H](CC(N)=O)NC(=O)[C@H](CCSC)NC(=O)[C@H](CCC(=O)O)NC(=O)[C@H](CC(=O)O)NC(=O)[C@H](CO)NC(=O)[C@H](Cc1ccccc1)NC(=O)[C@H](CO)NC(=O)CNC(=O)[C@H](CC(=O)O)NC(=O)CNC(=O)[C@@H](N)Cc1c[nH]cn1)[C@@H](C)O)[C@@H](C)CC)C(=O)N[C@@H](CC(N)=O)C(=O)N[C@@H](Cc1c[nH]c2ccccc12)C(=O)N[C@@H](CC(C)C)C(=O)N[C@H](C(=O)N[C@@H](CCC(N)=O)C(=O)N[C@H](C(=O)N[C@@H](CCCCN)C(=O)N[C@H](C(=O)N[C@H](C(=O)N[C@@H](CC(=O)O)C(=O)O)[C@@H](C)O)[C@@H](C)CC)[C@@H](C)O)[C@@H](C)CC [teduglutide]?
A: relation of effect on liver function tests to reduction of parenteral nutrition (responders vs non-responders) (baseline to week 24): the major part of the effect is not mediated through the reduction of parenteral nutrition; ALKALINE PHOSPHATASE change from Baseline to Week 24, Mean (Non-responder, n=11): −13.82 U/L; ALKALINE PHOSPHATASE change from Baseline to Week 24, Median (Non-responder, n=11): −7 U/L; ALT change from Baseline to Week 24, Mean (Non-responder, n=11): −3.82 U/L; ALT change from Baseline to Week 24, Median (Non-responder, n=11): −3 U/L; AST change from Baseline to Week 24, Mean (Non-responder, n=11): −2.18 U/L; AST change from Baseline to Week 24, Median (Non-responder, n=11): −2 U/L; BILIRUBIN, TOTAL change from Baseline to Week 24, Mean (Non-responder, n=11): -2.43 µmol/L; BILIRUBIN, TOTAL change from Baseline to Week 24, Median (Non-responder, n=11): -1.7 µmol/L; GGTP change from Baseline to Week 24, Mean (Non-responder, n=11): −1.91 U/L; GGTP change from Baseline to Week 24, Median (Non-responder, n=11): 3 U/L; ALKALINE PHOSPHATASE change from Baseline to Week 24, Mean (Responder, n=27): −35.52 U/L; ALKALINE PHOSPHATASE change from Baseline to Week 24, Median (Responder, n=27): −34 U/L; ALT change from Baseline to Week 24, Mean (Responder, n=27): −17.48 U/L; ALT change from Baseline to Week 24, Median (Responder, n=27): −14 U/L; AST change from Baseline to Week 24, Mean (Responder, n=27): −7.30 U/L; AST change from Baseline to Week 24, Median (Responder, n=27): −7 U/L; BILIRUBIN, TOTAL change from Baseline to Week 24, Mean (Responder, n=27): -4.19 µmol/L; BILIRUBIN, TOTAL change from Baseline to Week 24, Median (Responder, n=27): -2.4 µmol/L; GGTP change from Baseline to Week 24, Mean (Responder, n=27): −18.41 U/L; GGTP change from Baseline to Week 24, Median (Responder, n=27): −10 U/L; ALKALINE PHOSPHATASE change from Baseline to Week 24, Mean (Total, n=38): −29.24 U/L; ALKALINE PHOSPHATASE change from Baseline to Week 24, Median (Total, n=38): −24.5 U/L; ALT change from Baseline to Week 24, Mean (Total, n=38): −13.53 U/L; ALT change from Baseline to Week 24, Median (Total, n=38): −7.5 U/L; AST change from Baseline to Week 24, Mean (Total, n=38): −5.82 U/L; AST change from Baseline to Week 24, Median (Total, n=38): −5 U/L; BILIRUBIN, TOTAL change from Baseline to Week 24, Mean (Total, n=38): -3.68 µmol/L; BILIRUBIN, TOTAL change from Baseline to Week 24, Median (Total, n=38): -2.35 µmol/L; GGTP change from Baseline to Week 24, Mean (Total, n=38): −13.63 U/L; GGTP change from Baseline to Week 24, Median (Total, n=38): −6 U/L; ALKALINE PHOSPHATASE change from Baseline to Week 24, LS Means (by Treatment): −24.67 U/L; ALT change from Baseline to Week 24, LS Means (by Treatment): −10.65 U/L; AST change from Baseline to Week 24, LS Means (by Treatment): −4.74 U/L; BILIRUBIN, TOTAL change from Baseline to Week 24, LS Means (by Treatment): -3.31 µmol/L; GGTP change from Baseline to Week 24, LS Means (by Treatment): −10.16 U/L
